The test system of series [1] is intact skin of the lower arm. The series can be described thus: Pinprick test of anesthesis after topical application to intact skin of the lower arm. Format: in vivo. As to the method:
The pharmaceutical compositions were topically administered to intact skin of the arm and tested for anesthesis by pinpricks to a treated area of the skin. The sensation of pain was recorded for every puncture of the skin by the pin. […] The compositions were applied to intact skin of the lower arm in a circle area of a diameter of 1-2 cm. The amount of the composition applied to the skin was kept constant and left on the skin during the study. The treated area of intact skin was subjected to repeated pinpricks and the sensation of pain was recorded.

For series [2] the following is noted: animal models, compared with bupivacaine; cited from earlier work.
The conditions of series [3]: relative to lidocaine; cited from earlier work.
The conditions of series [4]: compared with prilocaine, lidocaine or ropivacaine; cited from earlier work.

Turning to `CCCN1CCCC[C@H]1C(=O)Nc1c(C)cccc1C.Cl.O` [Ropivacaine, (S)-N-(2,6-dimethylphenyl)-1-propylpiperidine-2-carboxamide hydrochloride monohydrate], in series [1], the “duration of effect (effect lasted)” value stood at 3 h and the onset of anesthesis entry was “approximately 1 hour”. For the same compound, in series [2], the cardiotoxicity result is given as “less cardiotoxicity than bupivacaine”. The “duration time of anesthesis compared to lidocaine” value in series [3] was “about two”.
In the case of `CCCCN1CCCCC1C(=O)Nc1c(C)cccc1C` (centres unmarked) [bupivacaine, 1-Butyl-N-(2,6-dimethylphenyl)-2-piperidinecarboxamide], the toxicity result in series [4] was “more toxic than prilocaine, lidocaine or ropivacaine”.
